Experimental data from patent US5411740A (ALZA Corporation, priority 1994, dated 1995).
Read-outs that look alike come from different tables or passages of the source.

How the values were obtained:
[1] = clinical; type: in vivo, human; conditions: system worn for 24 hours
Protocol: Therapeutic blood levels from about 0.5 ng/ml to about 3.0 ng/ml can be obtained from administration rates in the range of 0.08 mg/hr to 0.5 mg/hr. […] Therapeutic blood levels can be achieved within approximately 1-5 hours, and peak blood concentrations are achieved at about 3 hours when the system is worn for 24 hours. […] The system application is easily adapted for shorter or longer duration treatments, but generally 24 hours is the nominal duration for treatment.

[2] = clinical; conditions: human, in vivo, topical or ocular; for concentration at 24 h: after 24 hours; for concentration at 12 h: after 12 hours
Protocol: (§1) Addition time was approximately 45 minutes.
No in-line adhesive was present. […] There was a 3M acrylate in-line adhesive present.
The in vivo plasma levels of oxybutynin were measured for two body sites. A 10 cm^2 device was worn on the penis for 101/2 hours and two 10 cm^2 devices were worn on the inner thigh for 24 hours. A control sample was drawn before applying the systems.
The other subject achieved a plasma level of 0.7 ng/mL after 12 hours, and the plasma level was 0.8 ng/mL after 24 hours.

[3] = type: in vivo, human
Protocol: as §1

[4] = 25 mg/ml oxybutynin reservoir, 20 μm polybutadiene film, cited from earlier work
[5] = plasma oxybutynin concentration, two 10 cm^2 systems on inner thigh
[6] = plasma oxybutynin level, additional subject (the other), two 10 cm^2 systems on inner thigh

## CCN(CC)CC#CCOC(=O)C(O)(c1ccccc1)C1CCCCC1 (stereo not shown) [oxybutynin, 4-diethylamino-2-butynylphenylcyclohexylglycolate]
[1]; human, in vivo, topical or ocular, read-out: time of peak blood concentrations
  Tmax: ~3 h
[1]
  time to achieve therapeutic blood levels: 1 to 5 h
[2]; plasma oxybutynin concentration, additional subject (one), two 10 cm^2 systems on inner thigh, after 9 hours
  concentration at 9 h: 2 ng/mL
[2]; plasma oxybutynin concentration, additional subject (one), two 10 cm^2 systems on inner thigh
  concentration at 24 h: 1.7 ng/mL
[2]; [5]
  concentration at 12 h: 0.9 ng/mL
  concentration at 24 h: 1.1 ng/mL
[2]; plasma oxybutynin level, 10 cm^2 device on the penis, within 4 hours
  concentration at 4 h: 2 ng/mL
[2]; [6]
  concentration at 12 h: 0.7 ng/mL
  concentration at 24 h: 0.8 ng/mL
[3]; subject 1, inner thigh
  Measured Drug Loss: 5.8 mg/20 cm^2 /day
[3]; subject 2, inner thigh
  Measured Drug Loss: 8.6 mg/20 cm^2 /day
[3]; subject 3, chest
  Measured Drug Loss: 6.7 mg/20 cm^2 /day
[3]; subject 4, abdomen
  Measured Drug Loss: 7.2 mg/20 cm^2 /day
[3]; subject 5, penis
  Measured Drug Loss: 19.2 mg/20 cm^2 /day
[4]; 49 cm^2 area
  in vitro release rate: ~10 μg/cm^2 /hr
[4]; over 24 hours through a 49 cm^2 area
  in vitro release over 24 hours: approximately 12 mg
